The values that follow come from US10870647B2, “Imidazopyridine derivative, method for preparing same, and pharmaceutical composition containing same as active ingredient for preventing or treating cancer” (DAEGU-GYEONGBUK MEDICAL INNOVATION FOUNDATION, priority 2016, dated 2020).

SMILES strings stand for the structures.

Holding throughout (test): Kinase selectivity, scanMAX Kinase assay panel (DiscoverX), % control at 1 uM
Holding throughout (type): binding

Experiment [1] deals with T1, scanMAX Kinase assay panel (Homo sapiens, UniProt O14936).
T1 construct: purchased DiscoverX
T1 sequence (O14936 1-926): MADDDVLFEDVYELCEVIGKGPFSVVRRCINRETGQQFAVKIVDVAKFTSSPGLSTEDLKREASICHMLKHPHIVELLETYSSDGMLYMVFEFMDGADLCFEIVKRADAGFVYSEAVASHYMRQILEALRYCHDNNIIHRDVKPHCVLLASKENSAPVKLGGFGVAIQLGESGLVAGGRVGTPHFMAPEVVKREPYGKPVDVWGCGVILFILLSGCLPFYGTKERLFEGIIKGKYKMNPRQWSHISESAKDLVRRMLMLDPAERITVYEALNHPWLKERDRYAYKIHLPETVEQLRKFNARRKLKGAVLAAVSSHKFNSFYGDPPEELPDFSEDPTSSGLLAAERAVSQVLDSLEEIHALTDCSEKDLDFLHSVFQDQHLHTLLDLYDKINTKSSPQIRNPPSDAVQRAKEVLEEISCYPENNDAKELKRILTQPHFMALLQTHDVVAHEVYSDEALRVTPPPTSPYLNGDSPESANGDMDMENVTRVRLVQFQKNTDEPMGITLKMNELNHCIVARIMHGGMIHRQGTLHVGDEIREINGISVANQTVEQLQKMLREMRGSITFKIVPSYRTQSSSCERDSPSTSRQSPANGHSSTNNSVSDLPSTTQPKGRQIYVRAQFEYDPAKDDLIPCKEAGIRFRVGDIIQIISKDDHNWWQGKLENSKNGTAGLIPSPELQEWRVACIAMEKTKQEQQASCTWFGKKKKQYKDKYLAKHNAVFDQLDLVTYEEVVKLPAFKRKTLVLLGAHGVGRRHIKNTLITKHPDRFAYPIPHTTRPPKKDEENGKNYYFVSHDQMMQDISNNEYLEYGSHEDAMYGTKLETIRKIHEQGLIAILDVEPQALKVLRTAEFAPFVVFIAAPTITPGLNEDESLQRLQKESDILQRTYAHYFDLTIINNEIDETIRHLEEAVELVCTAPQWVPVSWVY
Particulars: CASK; 1 uM; read-out: Percent Control (%). The essentials:
(§1)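 Binding across the scanMAX kinase panel was tested at 1 uM compound. % control = (compound − positive control)/(negative control − positive control) × 100; below 35 counted as active.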

The target of experiment [2] is T2, scanMAX Kinase assay panel (Homo sapiens, UniProt O76039).
T2 construct: purchased DiscoverX
T2 sequence (O76039 1-960): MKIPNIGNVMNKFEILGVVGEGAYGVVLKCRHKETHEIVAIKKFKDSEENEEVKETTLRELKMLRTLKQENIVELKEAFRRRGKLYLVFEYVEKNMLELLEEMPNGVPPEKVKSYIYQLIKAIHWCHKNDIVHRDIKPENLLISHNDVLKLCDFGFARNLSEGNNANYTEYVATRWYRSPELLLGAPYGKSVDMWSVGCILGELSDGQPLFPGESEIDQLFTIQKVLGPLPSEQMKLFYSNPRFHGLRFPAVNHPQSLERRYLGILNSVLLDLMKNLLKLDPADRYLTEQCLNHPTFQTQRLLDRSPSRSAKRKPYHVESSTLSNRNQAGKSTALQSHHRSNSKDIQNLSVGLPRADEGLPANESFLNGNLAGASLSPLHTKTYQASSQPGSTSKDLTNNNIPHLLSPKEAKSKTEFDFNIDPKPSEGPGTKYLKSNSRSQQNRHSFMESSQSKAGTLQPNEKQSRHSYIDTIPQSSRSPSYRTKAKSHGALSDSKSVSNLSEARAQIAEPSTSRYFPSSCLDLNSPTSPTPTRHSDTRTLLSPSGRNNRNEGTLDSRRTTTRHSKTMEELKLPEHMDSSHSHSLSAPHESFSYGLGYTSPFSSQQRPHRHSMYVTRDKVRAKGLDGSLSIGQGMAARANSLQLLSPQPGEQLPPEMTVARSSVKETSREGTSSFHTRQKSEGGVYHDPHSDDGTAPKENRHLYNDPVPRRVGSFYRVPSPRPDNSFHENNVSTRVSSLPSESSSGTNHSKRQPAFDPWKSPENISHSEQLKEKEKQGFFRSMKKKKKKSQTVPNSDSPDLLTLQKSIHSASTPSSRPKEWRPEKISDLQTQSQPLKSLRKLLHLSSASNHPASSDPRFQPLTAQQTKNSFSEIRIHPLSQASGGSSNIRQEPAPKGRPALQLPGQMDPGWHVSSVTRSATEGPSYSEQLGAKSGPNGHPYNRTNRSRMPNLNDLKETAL
Particulars: CDKL5; 1 uM; read-out: Percent Control (%). Put shortly:
as §1

Experiment [3] deals with T3, scanMAX Kinase assay panel (Homo sapiens, UniProt P00533, DEL752-759).
T3 construct: purchased DiscoverX
T3 sequence (P00533 with tags, fused parts or gaps DEL752-759): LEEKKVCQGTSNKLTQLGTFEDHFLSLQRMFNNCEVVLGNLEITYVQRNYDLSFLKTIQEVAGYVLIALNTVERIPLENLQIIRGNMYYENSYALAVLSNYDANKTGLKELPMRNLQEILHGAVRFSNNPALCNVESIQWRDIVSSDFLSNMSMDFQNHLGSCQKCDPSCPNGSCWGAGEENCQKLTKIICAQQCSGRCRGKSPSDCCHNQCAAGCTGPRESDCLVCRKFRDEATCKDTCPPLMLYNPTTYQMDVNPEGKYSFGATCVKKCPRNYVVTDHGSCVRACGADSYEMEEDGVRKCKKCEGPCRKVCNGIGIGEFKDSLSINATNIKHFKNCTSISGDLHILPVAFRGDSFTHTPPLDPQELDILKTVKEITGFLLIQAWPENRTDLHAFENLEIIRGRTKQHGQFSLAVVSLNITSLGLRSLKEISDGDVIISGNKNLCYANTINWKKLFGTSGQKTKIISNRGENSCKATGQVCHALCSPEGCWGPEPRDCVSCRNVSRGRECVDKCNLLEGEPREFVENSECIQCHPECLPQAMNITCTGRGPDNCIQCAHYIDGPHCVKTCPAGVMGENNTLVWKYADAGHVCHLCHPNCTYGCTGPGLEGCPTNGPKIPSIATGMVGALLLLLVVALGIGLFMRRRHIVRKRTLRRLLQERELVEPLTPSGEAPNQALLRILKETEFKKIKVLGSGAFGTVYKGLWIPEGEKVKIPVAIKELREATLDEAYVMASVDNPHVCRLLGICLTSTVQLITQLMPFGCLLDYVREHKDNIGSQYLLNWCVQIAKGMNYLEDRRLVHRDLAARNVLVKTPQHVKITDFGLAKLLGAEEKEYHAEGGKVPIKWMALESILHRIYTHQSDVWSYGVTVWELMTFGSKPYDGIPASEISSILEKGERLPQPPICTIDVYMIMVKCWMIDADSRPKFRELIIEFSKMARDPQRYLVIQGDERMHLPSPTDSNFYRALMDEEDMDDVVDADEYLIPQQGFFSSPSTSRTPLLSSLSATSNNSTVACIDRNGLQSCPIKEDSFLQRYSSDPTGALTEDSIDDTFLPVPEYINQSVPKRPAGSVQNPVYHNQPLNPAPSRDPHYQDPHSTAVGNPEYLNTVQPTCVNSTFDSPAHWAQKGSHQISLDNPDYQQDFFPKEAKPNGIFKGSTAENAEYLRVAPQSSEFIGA
Particulars: EGFR (S752-I759del); 1 uM; read-out: Percent Control (%). The essentials: as §1

Experiment [4] deals with T4, scanMAX Kinase assay panel (Homo sapiens, UniProt P42336).
T4 construct: purchased DiscoverX
T4 sequence (P42336 whole entry): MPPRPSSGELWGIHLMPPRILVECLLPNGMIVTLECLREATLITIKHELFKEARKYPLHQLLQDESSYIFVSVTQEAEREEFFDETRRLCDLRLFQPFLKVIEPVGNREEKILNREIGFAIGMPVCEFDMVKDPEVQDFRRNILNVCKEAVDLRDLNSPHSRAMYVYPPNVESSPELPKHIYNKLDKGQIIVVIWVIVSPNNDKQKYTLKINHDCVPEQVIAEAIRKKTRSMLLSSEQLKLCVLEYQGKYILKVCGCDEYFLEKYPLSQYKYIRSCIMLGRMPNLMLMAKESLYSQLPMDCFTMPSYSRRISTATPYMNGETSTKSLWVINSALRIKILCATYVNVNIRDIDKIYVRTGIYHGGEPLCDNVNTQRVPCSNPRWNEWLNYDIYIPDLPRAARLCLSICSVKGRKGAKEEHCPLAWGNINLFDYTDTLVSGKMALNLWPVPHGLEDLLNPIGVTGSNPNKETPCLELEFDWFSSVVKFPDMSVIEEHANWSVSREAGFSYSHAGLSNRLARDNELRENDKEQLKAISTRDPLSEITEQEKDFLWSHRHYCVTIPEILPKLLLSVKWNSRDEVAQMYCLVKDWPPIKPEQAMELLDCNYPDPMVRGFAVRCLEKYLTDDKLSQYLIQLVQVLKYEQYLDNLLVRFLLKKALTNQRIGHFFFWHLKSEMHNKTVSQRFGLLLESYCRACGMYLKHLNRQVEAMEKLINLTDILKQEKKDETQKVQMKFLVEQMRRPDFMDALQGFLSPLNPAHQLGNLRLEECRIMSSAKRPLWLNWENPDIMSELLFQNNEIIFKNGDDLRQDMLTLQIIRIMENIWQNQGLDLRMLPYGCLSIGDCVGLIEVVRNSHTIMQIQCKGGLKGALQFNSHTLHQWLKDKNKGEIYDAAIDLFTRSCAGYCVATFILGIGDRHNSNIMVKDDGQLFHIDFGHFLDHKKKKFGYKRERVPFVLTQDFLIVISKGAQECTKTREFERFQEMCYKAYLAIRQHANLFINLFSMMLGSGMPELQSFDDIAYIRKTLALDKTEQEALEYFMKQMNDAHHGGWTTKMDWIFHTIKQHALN
To be noted: PIK3CA; 1 uM; read-out: Percent Control (%). Put shortly: as §1

For the compound `Cc1ccc(C(=O)Nc2ccc(CN3CCN(C)CC3)c(C(F)(F)F)c2)cc1C#Cc1cnc2c(Nc3cnn(C)c3)cccn12` [Example 1, 4-methyl-3-((8-((1-methyl-1H-pyrazol-4-yl)amino)imidazo[1,2-a]pyridin-3-yl)ethynyl)-N-(4-((4-methylpiperazin-1-yl)methyl)-3-(trifluoromethyl)phenyl)benzamide], the remaining binding at 1 µM is 74% in experiment [1], 94% in experiment [2], 7% in experiment [3] and 99% in experiment [4].
For `Cc1ccc(NC(=O)C2(C(=O)Nc3ccc(F)cc3)CC2)cc1C#Cc1cnc2c(Nc3cnn(C(C)C)c3)cccn12` [Example 78], in that order: 100%, 92%, 100% and 100%.
As for `Cc1cn(-c2cc(NC(=O)c3ccc(C)c(C#Cc4cnc5c(Nc6cnn(C)c6)cccn45)c3)cc(C(F)(F)F)c2)cn1` [Example 12, 4-methyl-N-(3-(4-methyl-1H-imidazol-1-yl)-5-(trifluoromethyl)phenyl)-3-((8-((1-methyl-1H-pyrazol-4-yl)amino)imidazo[1,2-a]pyridin-3-yl)ethynyl)benzamide], the remaining binding at 1 µM in experiment [1] turned out to be 90%; in experiment [2] it was 100%; in experiment [3], 8%; in experiment [4], 100%.
